Values of other authors in patent publication US20200197364A1, “DIHYDROMYRICETIN NANOPARTICLE FORMULATIONS” (priority 2017, published 2020).

Key:
[1] = through intestinal mucosa
[2] = in vivo
[3] = data collected by EPA

- Permeability [1]: low
- Oral bioavailability [2]: less than 5%
- Log P [3]: approximately 1.31
SMILES: O=C1c2c(O)cc(O)cc2O[C@H](c2cc(O)c(O)c(O)c2)[C@H]1O [DHM, Dihydromyricetin]
